In general, pIC50 refers to the IC50 on a negative log10 scale, so that one unit is a factor of ten.

The record followed here is patent US8309556B2, “Use of compounds derived from pyrimidinetrione as acetyl cholinesterase inhibitors, compositions containing said derivatives, and the uses thereof” (priority 2005, dated 2012).

pIC50: −log10 of the molar value.

For test [1], the system named is AChE1 activity of extracts of Culex pipiens larvae resistant to propoxur (G119S-mutated AChE). In words: biochemical. The settings on record: IC50 on larval extracts, sensitive relative to resistant. The method, then:
(§1) The inhibitory properties of the compounds of the preceding table I are tested with regard to the AChE activity by either using a normal or G119S-mutated recombinant AChE or using extracts of larvae of mosquitoes which are sensitive (carrying normal AChE) or resistant (carrying G119S-mutated AChE) to organophosphorus compounds and carbamates.
(§2) The AChE activity is measured using the method described by Bourguet et al., Pest Biochem. Physiol., 1996, 55, 122-128, and which refers to the spectroscopic method described by Ellman G. L. et al. (Biochem. Pharmacol., 1961, 7, 88-95) using acetylthiocholine as substrate.
(§3) Larvae of Culex pipiens mosquitoes which are sensitive or resistant to propoxur are milled in 400 μl of 0.25M phosphate buffer comprising 1% Triton X100. The homogenates are centrifuged at 10 000 rpm for 3 minutes.
(§4) The effectiveness of the various compounds with regard to the resistant larvae, relative to the sensitive larvae, is estimated by the sensitive/resistant ratio.

In test [2] the target is T1, AChE1 activity of extracts of Culex pipiens larvae resistant to propoxur (G119S-mutated AChE) (Culex pipiens, UniProt Q86GC8, G247S).
T1 construct: from tissue; host or cells: whole larvae of propoxur-resistant Culex pipiens, Triton X100 homogenate supernatant
Briefly: biochemical. The method, then: as §1, §2, §3, §4

The target of test [3] is T2, G119S-mutated recombinant Culex pipiens AChE1 (Culex pipiens, UniProt Q86GC8, G247S).
T2 construct: made in house; host or cells: Drosophila S2 cells (crude lysate supernatant)
Briefly: biochemical. The protocol: as §1, §2
(§5) The inhibitory properties of the compounds according to the invention with regard to the activity of a G119S-mutated or normal recombinant Culex pipiens AChE1 are tested according to protocol described by Weill et al., Nature, 2003, 423, 136-137.
(§6) Each compound according to the invention is tested at different concentrations on lysates of Drosophile S2 cells transfected with an empty expression vector or an expression vector expressing normal or mutated AChE1. After expression, the cells are centrifuged for 15 minutes at 14 000 rpm and are subsequently lysed in a 0.25 M phosphate buffer comprising 1% Triton X100.
(§7) 100 μl of supernatant originating from the centrifuging of the cell lysates at 10 000 rpm for 3 minutes are incubated for 15 minutes with 10 μl of each compound according to the invention at various concentrations.
(§8) The effectiveness of the various compounds with regard to the mutated AChE activity, relative to that of the normal AChE, is estimated by the sensitive/insensitive ratio.

Test [4] relates to G119S-mutated recombinant Culex pipiens AChE1. In words: biochemical. The settings on record: IC50 normal AChE1 relative to mutated AChE1, recombinant. The protocol: as §1, §2, §5, §6, §7, §8
Test [5] has as its system larvae of mosquitoes Culex pipiens sensitive to propoxur. In words: Insecticidal activity: larval mortality, propoxur-sensitive larvae. The class given is in vivo. To be noted: stage-4 larvae, mortality after 24 hours, log-Probit, read-out: LD50, Sensitive larvae. The protocol:
(§9) The insecticidal activity of the compounds according to the invention denoted in table IV below is tested on larvae of mosquitoes Culex pipiens sensitive or resistant to the action of propoxur.
(§10) The larvae resistant or sensitive to propoxur are incubated in 24-well plates, at the rate of 15 stage-4 larvae per well, in 1 ml of tap water comprising different concentrations of compounds ranging from 0.31 to 50 μg/ml.
(§11) Larval mortality is measured after incubating for 24 hours. […] Cahiers ORSTOM, série Entomologie médicale et Parasitologie, 23(2), 117-121; Raymond, M., Prato, G. and Ratsira, D. (1993). PROBIT, CNRS-UMII, Licence L93019. Avenix, 34680 St. Georges d'Orques, France.), the homogeneity of the dose/response being tested. The effectiveness of the different compounds with regard to the resistant larvae, relative to the sensitive larvae, is estimated by the sensitive/resistant ratio.

For test [6], the target named is T3, normal recombinant Culex pipiens AChE1 (Culex pipiens, UniProt Q86GC8).
T3 construct: made in house; host or cells: Drosophila S2 cells (crude lysate supernatant)
Briefly: Inhibition of normal recombinant AChE1 (lysates of transfected Drosophile S2 cells, Ellman method). Type of test: biochemical. The protocol:
as §1, §2, §5, §6, §7, §8
Background: In Ellman's method for cholinesterases, released thiocholine reacts with DTNB.

In test [7] the test system is larvae of mosquitoes Culex pipiens resistant to propoxur. In words: Insecticidal activity: larval mortality, propoxur-resistant larvae. Type of test: in vivo. The settings on record: for LC50: Culex pipiens, stage-4 larvae, mortality after 24 hours, log-Probit, read-out: LD50, Resistant larvae; for Sensitive/resistant ratio: LD50 larval mortality, sensitive relative to resistant. The protocol:
as §9, §10, §11

Test [8] addresses T4, AChE1 activity of extracts of Culex pipiens larvae sensitive to propoxur (normal AChE) (Culex pipiens, UniProt Q86GC8).
T4 construct: from tissue; host or cells: whole larvae of propoxur-sensitive Culex pipiens, Triton X100 homogenate supernatant
In words: Inhibition of AChE1 activity in extracts of propoxur-sensitive mosquito larvae. Type of test: biochemical. The settings on record: extracts of propoxur-sensitive larvae, 15 minutes incubation; read-out: IC50, Sensitive larvae. The protocol: as §1, §2, §3, §4

On to `Cc1ccc(C=C2C(=O)NC(=O)N(c3ccc(Cl)cc3)C2=O)o1` [(6), 1-(4-chlorophenyl)-5-[(5-methyl-2-furyl)methylene]-2,4,6(1H,3H,5H)-pyrimidinetrione], for which the Sensitive/resistant ratio in test [1] was 12.0; in test [7] it was 4.0. Further, the pIC50 in test [2] was 4.57; in test [3] it was 4.37; in test [6], 4.15; in test [8], 3.48. Besides, in test [4], the Sensitive/insensitive ratio came out at 1.63. Further, the LC50 in test [5] was determined as 762 µM; in test [7] it was 192 µM.
As for `Cc1ccc(C=C2C(=O)NC(=O)N(c3ccccc3)C2=O)o1` [(1), 5-[(5-methyl-2-furyl)methylene]-1-phenyl-2,4,6(1H,3H,5H)-pyrimidinetrione], the Sensitive/resistant ratio was 4.7 in test [1] and 2.2 in test [7]. In addition, the pIC50 was 5.21 in test [2], 4.64 in test [3], 4.47 in test [6] and 4.53 in test [8]. Besides, the Sensitive/insensitive ratio in test [4] is 1.47. In addition, the LC50 in test [5] was 310 µM; in test [7] it was 143 µM.
`COc1cccc(N2C(=O)NC(=O)C(=Cc3ccc(C)s3)C2=O)c1` [(3), 1-(3-methoxyphenyl)-5-[(5-methyl-2-thienyl)methylene]-2,4,6(1H,3H,5H)-pyrimidinetrione]: the figures for the Sensitive/resistant ratio in test [1] and in test [7] were 3.5 and 3.2, respectively. Also, the negative-log IC50 (pIC50) in test [2] was 4.48; in test [3] it was 4.21; in test [6] it was 3.99; in test [8], 3.93. The Sensitive/insensitive ratio in test [4] is 1.65. For the same compound, the LC50 in test [5] was 389 µM; in test [7], 122 µM.
As to `C=CCN1C(=O)C(=Cc2ccc(C)o2)C(=O)NC1=S` [(8), 1-allyl-5-[(5-methyl-2-furyl)methylene]-2-thioxodihydro-4,6(1H,5H)-pyrimidinetrione], the Sensitive/resistant ratio in test [1] and in test [7] was 1.8 throughout. The pIC50 in test [2] was 4.29; in test [3] it was 4.54; in test [6] it was 4.21; in test [8] it was 4.04. Further, in test [4], the Sensitive/insensitive ratio is given as 2.08. Also, the LC50 in test [5] amounted to 223 µM; in test [7], 123 µM.
As for `Cc1ccc(C=C2C(=O)N(C)C(=O)N(C)C2=O)o1` [(4), 1,3-dimethyl-5-[(5-methyl-2-furyl)methylene]-2,4,6(1H,3H,5H)-pyrimidinetrione], the Sensitive/resistant ratio in test [1] was 9.8; in test [7], 2.9. In addition, the pIC50 in test [2] is 5.12; in test [3], 4.51; in test [6] it was 4.14; in test [8], 4.13. In addition, the Sensitive/insensitive ratio in test [4] was 2.40. In addition, the LC50 amounted to 576 µM in test [5] and 200 µM in test [7].
With `Cc1cccc(N2C(=O)NC(=O)C(=Cc3ccc(C)s3)C2=O)c1` [(2), 1-(3-methylphenyl)-5-[(5-methyl-2-thienyl)methylene]-2,4,6(1H,3H,5H)-pyrimidinetrione], the Sensitive/resistant ratio worked out at 15.5 in test [1] and 2.7 in test [7]. Besides, the pIC50 in test [2] was 4.55; in test [3] it was 4.37; in test [6], 4.41; in test [8] it was 3.35. Moreover, the Sensitive/insensitive ratio in test [4] is reported as 0.90. Further, the LC50 in test [5] is 455 µM; in test [7], 170 µM.
